Test results as given in patent US6489350B1, “Methods for treating neuropathic pain using heteroarylmethanesulfonamides” (Elan Pharmaceuticals, Inc., priority 1999, dated 2002).
Entries after “also recorded” stand apart in the source; their conditions may differ.

Columns and labels:
[1] = tested on: formalin-evoked behavior in diabetic rats; conditions: 50 mg/kg i.p. 30 min pre-test; 5.0% formalin; both control and diabetic rats; cited from earlier work
[2] = tested on: Rats with Streptozotocin (STZ)-Induced Diabetes Mellitus and Consequent Diabetic Neuropathy; experiment: Paw withdrawal force (mechanical hyperalgesia) in rats with streptozotocin-induced diabetes; assay type: in vivo, Male Wistar rats; conditions: for Paw withdrawal threshold force, Week 1 Mean: Week 1, before drug treatment (baseline); for Paw withdrawal threshold force, Week 2 Mean: Week 2, before drug treatment (baseline); for Paw withdrawal threshold force, Week 3 Mean: Week 3, before drug treatment (baseline); for Paw withdrawal threshold force, Week 4 Mean: Week 4, before drug treatment (baseline)
Description: Male Wistar rats (250-300 g), following an overnight fast, were made diabetic with 55 mg/kg i.p. streptozotocin (Sigma, St. Louis, Mo., USA). Tail ven blood was sampled 48 h later and glucose estimated by reflectance photometry (Reflocheck, Boehringer Mannheim). All STZ-treated rats had blood glucose >15 mmol/l and were included in the study. Animals were housed in boxes of three or four and maintained with food and water ad libitum for up to 6 weeks. non-diabetic control rats were housed in identical conditions. Each week (Friday) paw—pressure latency was measured as described immediately below.
A force was applied at a constant rate with a cone-shaped piston to the upper surface of the rat hindpaw until paw withdrawal; the force triggering withdrawal is measured as the “paw withdrawal force”. An arbitrary cut-off force of 240 g was adopted to preclude traumatic damage. Rats are trained such that latency is measured weekly, on Fridays.
At the start of week 5, drug treatments as defined for each of the groups set out below were commenced, such that 5 treatments preceded paw pressure testing. The injections and pressure test were timed so that, for each rat, the pressure test was made between 30 and 35 min after injection.
Monday of week 1 the rats were injected with streptozotocin and blood glucose determinations were made Wednesday of that week, on the Friday the 1st paw pressure test was performed. In weeks 2, 3, and 4 only paw pressure tests were performed on each of the Fridays. In week 5 treatments of groups C, D and E were begun with either zonisarnide (Groups C and D) or MK-801 (Group E) and paw pressure tests were performed on all groups on Friday.
Group B was given a single dose of zonisamide at 50 mg/kg on the Friday of week 6 and paw withdrawal force measured 30 min later.
Group D was maintained without treatment for week 6 (drug “washout”) and measured again on the Friday of week 6.
Data are means with standard deviations. Zonisamide was given once daily (p.o.) between 08:30 and 09:00 for 5 days during Week 5. MK-801 was given at 0.1 mg/kg i.p. twice daily (morning and evening). All measurements were made on Fridays between 10:30 and 13:30 hr. In Week 6, the designated “diabetic untreated” group (Group B) was given a single p.o. dose of 50 mg/kg zonisamide 2-3 h before measurement. For Week 6, drug treatment was withdrawn from Group D (last dose on Friday of week 5).

[3] = tested on: formalin-induced hyperalgesia in rats; experiment: Formalin test model in rats (paw flinches); assay type: in vivo, rat
Description: The formalin test model in rats was conducted based on the protocol developed and reported by Malmberg A. B. and Yaksh T. L. (1992) as an animal model of hyperalgesia.
The formalin pain test produces an “early” pain that rapidly rises and falls in intensity during the first five minutes after the injection, followed by a “late” pain, which begins about 15 minutes after the injection and persists for about an hour. It has been observed that this formalin-induced pain continues even after the nerves carrying pain signals have been blocked which implies that long-lasting pain is determined not only by sensory stimulation during the discomfort but also by brain processes that persist without continual priming.
Eight (8) animals received 100 mg/kg zonisamide via oral (gastric lavage tube) administration, and eight (8) animals received sterile water as a vehicle. On the morning of testing, a small metal band (0.5 g) was loosely placed around the right hind paw. After 1 hour, the rat was placed in a cylindrical plexiglass changer for adaptation. After one additional hour, the rat was then placed in a similar cylindrical chamber that was placed on the sensing pad of an automated formalin device that senses the movement of the metal band in the space above the area above the pad. The formalin test involved injecting 50 μl of 5% formalin into the dorsal surface of the right hindpaw. […] These flinches were counted automatically and continuously over the following one-hour interval. At one hour the animal was removed and sacrificed by carbon dioxide inhalation.
The results of the tests are presented in FIGS. 2A as summations at 5-minute intervals, and in 2B broken down into phase responses. (Phase I being the “early” pain response to the formalin injection and phase II, IIA and IIB being “late” phase parts of the facilitated response state discussed above and in the Detailed Description).

[4] = Group E diabetic, MK-801 0.1 mg/kg group
[5] = 100 mg/kg orally prior to 5% formalin injection, vs water vehicle
[6] = Group C diabetic, zonisamide 20 mg/kg group
[7] = Group D diabetic, zonisamide 50 mg/kg group

NCC1(CC(=O)O)CCCCC1 [Gabapentin, 1-(aminomethyl)cyclohexaneacetic acid]
Flinching during phases 1 and 2 of the formalin test [1]: suppressed flinching

C[C@]12N[C@H](Cc3ccccc31)c1ccccc12 [MK-801, dizocilpine]
Paw withdrawal threshold force, Week 1 Mean [2, 4]: 214.9 g | Paw withdrawal threshold force, Week 2 Mean [2, 4]: 207.1 g | Paw withdrawal threshold force, Week 3 Mean [2, 4]: 200.0 g | Paw withdrawal threshold force, Week 4 Mean [2, 4]: 191.4 g | Paw withdrawal threshold force, Week 5 Mean ([2]; Group E diabetic, 0.1 mg/kg i.p. twice daily for 5 days during Week 5): 221.8 g

NS(=O)(=O)Cc1noc2ccccc12 [zonisamide, 1,2-benzisoxazole-3-methanesulfonamide]
Effect on Phase I flinches [3, 5]: not significant effect | Effect on Phase II flinches [3, 5]: not significant effect | Effect on Phase IIA flinches [3, 5]: statistically significant effect; also recorded: significantly reduced | Effect on Phase IIB flinches [3, 5]: not significant effect | Behavioral deficits ([3]; 100 mg/kg orally, rats): No behavioral deficits were noted | Effect on hyperalgesia (change in paw withdrawal force) ([2]; 20 mg/kg p.o. for 5 days, reduction in tolerated force still present and significant (p<0.0002)): attenuated this hyperalgesia | Effect on hyperalgesia (change in paw withdrawal force) ([2]; 50 mg/kg p.o. daily for 5 days, p=0.703, paired t-test): obliterated the change in paw withdrawal force; also recorded: increase in force necessary to evoke a hyperalgesic pain response | Activity against mechanical hyperalgesia (conclusion) ([2]; 4-5 weeks of STZ diabetes in rats, dose related): active against the mechanical hyperalgesia | Paw withdrawal threshold force, Week 6 Mean ([2]; Group B, previously untreated diabetic rats, single p.o. dose of 50 mg/kg in Week 6): 213.6 g | Paw withdrawal threshold force, Week 1 Mean [2, 6]: 212.2 g | Paw withdrawal threshold force, Week 2 Mean [2, 6]: 206.4 g | Paw withdrawal threshold force, Week 3 Mean [2, 6]: 199.6 g | Paw withdrawal threshold force, Week 4 Mean [2, 6]: 190.0 g | Paw withdrawal threshold force, Week 5 Mean ([2]; Group C diabetic, 20 mg/kg p.o. once daily for 5 days during Week 5): 195.0 g | Paw withdrawal threshold force, Week 1 Mean [2, 7]: 212.72 g | Paw withdrawal threshold force, Week 2 Mean [2, 7]: 208.9 g | Paw withdrawal threshold force, Week 3 Mean [2, 7]: 200.7 g | Paw withdrawal threshold force, Week 4 Mean [2, 7]: 191.5 g | Paw withdrawal threshold force, Week 5 Mean ([2]; Group D diabetic, 50 mg/kg p.o. once daily for 5 days during Week 5): 214.9 g | Paw withdrawal threshold force, Week 6 Mean ([2]; Group D diabetic, Week 6, drug washout, last 50 mg/kg dose on Friday of week 5): 186.2 g | Effect of withdrawal and washout of the drug on hyperalgesia ([2]; one week after treatment with 50 mg/kg for 5 days, p<0.002, 50 mg/kg): return of the hyperalgesia; also recorded: force required to cause a paw withdrawal reaction was reduced | Effect on mechanical hyperalgesia after a single dose ([2]; previously untreated diabetic rats, single 50 mg/kg dose, p<<0.0001, 50 mg/kg): obliterated the mechanical hyperalgesia; also recorded: increase in force necessary to evoke a hyperalgesic pain response
